# Assay results taken from patent publication EP0142057A2, “Thiazoloquinazoline derivatives, their preparation and pharmaceutical compositions containing same” (F. HOFFMANN-LA ROCHE AG, priority 1983, dated 1985).
# Where a name gives a salt, the structure may show the parent alone.
# How the values were obtained:
# [1] = system: vascular permeability in rat skin; assay: Rat skin permeability, in vivo (LTE4-induced skin wheal); set-up: species or system rats; details: for reduction in the skin wheal size: 10 mg/kg i.v.; for Rat Skin Permeability % Inhibition (10mg/kg iv): Table II, LTE4 wheal
# Protocol: In this model the ability of LTE4 to increase vascular permeability in rat skin was utilized. Anesthetized rats, pretreated for 30 minutes with an antihistamine pyrilamine maleate, 50 mg/kg i.p. and a serotonin antagonist, methyl- […] maleate (4 mg/kg i.p.), were injected intradermally with a standard dose of LTE4 which gave a maximum wheal (in 0.05 ml saline). After introduction of test drug (at 10 mg/kg i.v.) the animals were immediately treated intravenously with Evans blue dye i.v. (0.5%) in the tail vein resulting in the formation of a skin wheal. Thirty minutes later the animals were sacrificed and the skin wheal size was measured. The average response in 5 animals (4 intradermal injections per animal) treated with test compound was compared to that obtained in a similar group of control animals to determine the percent inhibition by the drug.
# [2] = system: vascular permeability in rat skin; assay: as above; set-up: species or system rats; details: for oral activity: tested orally
# [3] = system: Guinea Pig Bronchoconstriction; assay: Guinea pig bronchoconstriction, in vivo (leukotriene E4 challenge); set-up: species or system guinea pigs; details: for inhibition: 10 mg/kg, i.v.; for inhibition / Guinea Pig Broncho-constriction % Inhibition (10 mg/kg i.v.): leukotriene E4 challenge; for Guinea Pig Broncho-constriction % Inhibition (10 mg/kg i.v.): Table II; for oral activity: orally 100 mg/kg, 2 hours prior to challenge with leukotriene E4
# Protocol: Male guinea pigs (Hostley strain) weighing 300 to 450 grams are anesthetized with urethane (2 g/kg) intraperitoneally and a polyethylene cannula is inserted into the jugular vein for intravenous drug administration. Tracheal pressure is recorded from a cannula inserted in the trachea and connected to a Statham pressure transducer. Respiration is paralyzed with succinyl choline (1.2 mg/kg, i.v.) and the animals are mechanically respirated (Howard rodent respirator) at 40 breaths/minute and 2.5 ml tidal volume. Two minutes thereafter, propranolol (0.1 mg/kg, i.v.) is administered. Five minutes later, the animals are pretreated intravenously for 30 seconds (at 10 mg/kg) with test drug or control vehicle. The animals are subsequently challenged with a maximally constrictory dose of leukotriene E4 also administered intravenously. The change (cm H20) between pre and peak ventilatory pressure readings is averaged for three control animals and five drug treated animals. The percent inhibition is calculated from the following formula: [formula]
# For determination of oral activity spontaneously breathing animals are pretreated orally with drugs (100 mg/kg) for 2 hours (at 100 mg/kg) prior to challenge with leukotriene E4. […] When tested orally in this assay the two compounds of the invention were active. Results obtained with representative compounds of the present invention in this assay are summarized hereafter in Table II.
# [4] = system: Rat Passive Cutaneous Anaphylaxis; assay: Passive cutaneous anaphylaxis (PCA) assay; type: in vivo, rats; details: for ED50: Rattus norvegicus, po, doses administered orally, read-out: Rat PCA Test ID50
# Protocol: Male Sprague-Dawley rats obtained from Charles River Breeding Laboratories were used in the PCA assay. Two methods were used to prepare serum IgE antibody which is specific for egg albumin. In the first method homocytotropic antibody was obtained by injecting 180 to 200 g rats with 1.0 mg of egg albumin (Difco Laboratories, Detroit, Michigan) intramuscularly and 6.4 x 10^10 organisms of Bordetella pertussis vaccine (Eli Lilly and Co., Indiana- polis, Ind.) intraperitoneally. Serum collected from each animal 18-20 days after sensitization was pooled, separated into 1 ml aliquots, and kept frozen until further use. In the second method, rats weighing 150-200 g were immunized by the intraperitoneal injection of 0.5 ml of Bordetella pertussis vaccine (Cannaught Laboratories, Willowdale, Toronto, Canada, 20 optical units/ml) and 100 μg of egg albumin (Nutritional Biochemicals Corp., Cleveland. Ohio). Sixteen days later, Nipostrongylus brasi- […] (3000 larvae/0.1 ml) was administered subcutaneously, and on the 21st day, 10 μg of egg albumin in 0.5 ml of normal saline was administered intraperitoneally. On the 30th day, blood samples were collected by heart puncture; the serum was separated by centrifugation and refrigerated overnight at 5°C. After a 24 hour period, the samples were assayed for antibody activity by the passive cutaneous anaphylaxis method. Those serum samples which produced an average wheal diameter of 3 mm or greater following an intradermal injection of 0.05 ml of a 1:50 dilution of serum in normal saline were pooled, divided into aliquots, and kept frozen until further use. […] The passive cutaneous anaphylaxis assay was carried out in rats weighing 190-220 g in a manner similar to that of Goose and Blair (J. Goose and A.M.J.N. Blair, Immunology, 16, 749 [1969]). Rat IgE antiovalbumin in serum was prepared as described above. The IgE antiserum was titered with normal saline so that injections of 0.05 ml produced skin wheal diameters which averaged 7 to 10 mm. After a 24 hour sensitization period, 1 ml of an aqueous solution containing a mixture of 8 mg of egg albumin (Nutritional Biochemical Corp.. Cleveland, Ohio) and 5 mg of Evans blue dye ([…] Chemical Co., Inc., Harriman, N.Y.) was administered intravenously to each rat. Forty minutes after challenge, each animal was sacrificed by cervical dislocation, and the dorsal skin was removed for examination. The long and short axes of the blued area were measured on the inner surface of the skin with a metric vernier caliper (VWR Scientific Division of Univar, Rochester, N.Y.), and the average diameter was determined for each reaction. […] The procedure was usually conducted on five animals in the control and each of the treatment groups. Statistical analysis of the test results was conduced by the Student's t test of control vs. various treatments. The ID50 and 95% limits were determined by a modification of the Berkson minimum logic chi square method (J. Berkson, J. Am. Stat. Assoc., 48, 565 [1953]).
# TXA2 synthase = molecular target: T1, TXA2 synthase (Homo sapiens, UniProt P24557); assay: Thromboxane synthase inhibition, in vitro; type: biochemical; details: at 10^-7M; microsomal fractions from human platelets; read-out: TXA2Synthase Inhibition (% at 10^-7M)
# T1 construct: using microsomal fractions from human platelets as enzyme source; from tissue; host or cells: human platelets (microsomal fraction)
# T1 sequence (P24557 1-533): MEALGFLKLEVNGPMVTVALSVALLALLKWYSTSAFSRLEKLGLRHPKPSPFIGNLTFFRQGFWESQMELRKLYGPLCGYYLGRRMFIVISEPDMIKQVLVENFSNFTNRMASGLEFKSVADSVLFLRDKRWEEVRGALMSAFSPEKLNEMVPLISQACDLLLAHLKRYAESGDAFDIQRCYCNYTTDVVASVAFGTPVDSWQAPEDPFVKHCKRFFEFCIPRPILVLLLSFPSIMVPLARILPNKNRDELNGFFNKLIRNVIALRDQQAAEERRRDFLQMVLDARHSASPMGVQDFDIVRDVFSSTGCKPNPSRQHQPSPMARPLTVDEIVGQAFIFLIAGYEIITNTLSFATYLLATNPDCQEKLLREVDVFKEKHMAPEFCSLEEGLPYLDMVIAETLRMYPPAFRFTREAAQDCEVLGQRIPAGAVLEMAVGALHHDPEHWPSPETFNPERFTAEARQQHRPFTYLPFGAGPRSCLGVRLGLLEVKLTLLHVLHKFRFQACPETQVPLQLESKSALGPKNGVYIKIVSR
# Protocol: TXA2 synthase activity is measured by following the conversion of ^14C-prostaglandin endoperoxide (PGH2) to ^14C-thromboxane A2 (TXA2) using microsomal fractions from human platelets as enzyme source. In the aqueous incubation medium, the TXA2 decomposes rapidly into TXB2. The amount of TXA2 synthase is adjusted so that under the conditions of the assay approximately 80-90% of the substrate, PGH2, is converted to product in control tubes. To prepare ^14C-PGH2, ^14C-AA (50-60 mCi/mmole: Rose Chem.) is incubated with sheep seminal vesicular gland microsomes for 1.5 minutes at 37°C and then the ^14C-PGH2 is extracted with diethylether, purified on columns of Sephadex LH-20 or silicic acid, and stored in acetone at -70°C. Incubations are done as follows. Sufficient ^14C-PGH2 to yield a final substrate concentration of 10 µM (30,000 cpm) is added to the incubation tubes and then the acetone is removed under nitrogen. The tubes are placed in an ice bath and then 215 1 of ice cold phosphate buffered saline, 10 1 of ethanol (control) or of test drug in ethanol, and 25 1 of the microsomal suspension are added with mixing in that order as rapidly as possible. The tubes are incubated at 22°C for 2 minutes, the reaction is stopped and then the radioactive products and the uncoverted PGH2 are extracted and analyzed by thin layer chromatography. […] The amount of ^14C-PGH2 converted to products was used as a measure of TXA2 synthase activity. Inhibitors were tested initially at a final concentration of 100 µM. Results obtained with representative compounds of the present invention in this assay are summarized hereafter in Table I.
structure (smiles),measurement,setting,value
"CC(C)c1ccc2nc3sc(C(=O)NCCCCc4cccnc4)cn3c(=O)c2c1 [Example 3, 7-(1-Methylethyl)-5-oxo-N-[4-(3-pyridinyl)butyl]-5H-thiazolo[2,3-b]quinazoline-2-carboxamide]",reduction in the skin wheal size,[1],35%
same,Rat Skin Permeability % Inhibition (10mg/kg iv),[1],35%
same,oral activity,[2],active
same,inhibition,[3],68%
same,Guinea Pig Broncho-constriction % Inhibition (10 mg/kg i.v.),[3],68%
same,oral activity,[3],active
CCN(CC)CCOC(=O)c1cn2c(=O)c3cc(OC)ccc3nc2s1,Rat PCA Test (% Inhibition) 16 mg/kg ip,[4],100%
same,Rat PCA Test (% Inhibition) 32 mg/kg po,[4],100%
same,ED50,[4],1.31 mg/kg
"CCN(CC)CCNC(=O)c1cn2c(=O)c3cc(C(C)C)cc(C(C)C)c3nc2s1 [7,9-Bis(1-methylethyl)-N-[2-(diethylamino)ethyl] -5-oxo-5H--thiazolo[2,3-b]quinazoline-2-carboxamide hydrochloride]",Rat PCA Test (% Inhibition) 16 mg/kg ip,[4],31%
same,Rat PCA Test (% Inhibition) 32 mg/kg po,[4],27%
"CCCc1c(OCC(O)COc2ccc3c(=O)cc(C(=O)O)oc3c2CCC)ccc(C(C)=O)c1O (stereo not drawn) [7-[3-(4-acetyl-3-hydroxy-2-propylphenoxy) -2-hydroxypropoxy]-4-oxo-8-propyl-4H-l-benzopyran-2-carboxylic acid, reference compound]",reduction in the skin wheal size,[1],88%
same,oral activity,[2],inactive
same,inhibition,[3],98%
same,oral activity,[3],inactive
"CCN(CC)CCOC(=O)c1cn2c(=O)c3cc(C(C)C)ccc3nc2s1 [7-(1-Methylethyl)-5-oxo-5H-thiazolo[2,3-b]quinazoline-2-carboxylic acid(2-diethylaminoethyl) ester hydrochloride]",Rat PCA Test (% Inhibition) 16 mg/kg ip,[4],100%
same,Rat PCA Test (% Inhibition) 32 mg/kg po,[4],100%
same,ED50,[4],0.45 mg/kg
CC(C)c1ccc2nc3sc(C(=O)N(C)CCCCc4cccnc4)cn3c(=O)c2c1,Rat Skin Permeability % Inhibition (10mg/kg iv),[1],72%
same,Guinea Pig Broncho-constriction % Inhibition (10 mg/kg i.v.),[3],Inactive
"CC(C)c1ccc2nc3sc(C(=O)NCCCCc4cccnc4)cn3c(=O)c2c1 [the 1st table, row 4, 7-(1-Methylethyl)-5-oxo-N-[4-(3-pyridinyl)butyl]-5H-thiazolo[2,3-b]quinazoline-2-carboxamide]",inhibition at 0.1 µM,TXA2 synthase,73%
"CC(C)c1cc(C(C)C)c2nc3sc(C(=O)NCCCCc4cccnc4)cn3c(=O)c2c1 [the 2nd table, row 8, 7,9-bis(1-methylethyl)-5-oxo-N-[4-(3-pyridinyl)butyl]-5H-thiazolo[2,3-b]quinazoline-2-carboxamide]",Rat Skin Permeability % Inhibition (10mg/kg iv),[1],38%
"CCN(CC)CCOC(=O)c1cn2c(=O)c3cc(SC)ccc3nc2s1.Cl [Example 17, 7-(Methylthio)-5-oxo-5H-thiazolo[2,3-b]quinazoline-2-carboxylic acid (2-diethylaminoethyl) ester hydrochloride]",Rat PCA Test (% Inhibition) 16 mg/kg ip,[4],52%
same,Rat PCA Test (% Inhibition) 32 mg/kg po,[4],100%
same,ED50,[4],2.85 mg/kg
CCN(CC)CCNC(=O)c1cn2c(=O)c3cc(C(C)C)ccc3nc2s1,Rat PCA Test (% Inhibition) 32 mg/kg po,[4],50%
"CC(C)c1cc(C(C)C)c2nc3sc(C(=O)NCCCCc4cccnc4)cn3c(=O)c2c1 [the 1st table, row 5, 7,9-bis(1-methylethyl)-5-oxo-N-[4-(3-pyridinyl)butyl]-5H-thiazolo[2,3-b]quinazoline-2-carboxamide]",inhibition at 0.1 µM,TXA2 synthase,63%
"CC(C)c1ccc2nc3sc(C(=O)NCCCCn4ccnc4)cn3c(=O)c2c1 [the 1st table, row 8]",inhibition at 0.1 µM,TXA2 synthase,67%
CC(C)c1ccc2nc3sc(C(=O)NCCCCOc4cccnc4)cn3c(=O)c2c1,inhibition at 0.1 µM,TXA2 synthase,30%
CCC(C)c1ccc2nc3sc(C(=O)NCCN(CC)CC)cn3c(=O)c2c1 (stereo not shown),Rat PCA Test (% Inhibition) 16 mg/kg ip,[4],21%
"CC(C)c1ccc2nc3sc(C(=O)NCCCCn4ccnc4)cn3c(=O)c2c1 [Example 6, N-[4-(1H-Imidazol-1-yl)butyl]-7-(1-methylethyl)-5-oxo-5H-thiazolo[2,3-b]quinazoline-2-carboxamide dihydrochloride 0.45 molar hydrate]",reduction in the skin wheal size,[1],61%
same,Rat Skin Permeability % Inhibition (10mg/kg iv),[1],61%
same,Rat Skin Permeability ID50,[2]; iv,10 mg/kg
same,Rat Skin Permeability ID50,[2]; po,55 mg/kg
same,oral activity,[2],active
same,inhibition,[3],85%
same,ED50,"[3]; Cavia porcellus, po, read-out: Guinea Pig Broncho-constriction ID50",51 mg/kg
same,Guinea Pig Broncho-constriction % Inhibition (10 mg/kg i.v.),[3],85%
same,oral activity,[3],active
CCN(CC)CCNC(=O)c1cn2c(=O)c3cc(CC(C)C)ccc3nc2s1,Rat PCA Test (% Inhibition) 16 mg/kg ip,[4],31%
